Experimental data reported in US6087355A, “Cephalosporin antibiotics” (Microcide Pharmaceuticals, Inc., priority 1996, dated 2000).
≈ marks a conversion by molar mass, not a printed value.

Legend:
[1] = system: S. aureus strain ATCC 13709 (methicillin-susceptible); assay: Murine model for lethal bacteremic peritonitis; format: in vivo, female Swiss-Webster mice; settings: Staphylococcus aureus, ATCC13709, SC, 72 h
In short: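 Female Swiss-Webster mice were challenged IP with an LD100 inoculum in 7% hog gastric mucin, then given test drug subcutaneously in twofold increments (0.01–512 mg/kg) as two equal doses at challenge and 2 h later, 10 mice per group. Survival was scored at 72 h; PD50 (total mg/kg) was derived by probit.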

[2] = system: S. aureus Col8A(Meth^S)(lac^-); assay: In vitro MIC, agar dilution; format: cell-based; settings: Staphylococcus aureus; S. aureus Col8A(Meth^S)(lac^-); read-out: minimum inhibitory concentration (MIC)
In short: (§1)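 Two-fold dilutions (128 to ≤0.25 μg/mL, in duplicate) were poured into Mueller-Hinton agar. Log-phase broth cultures were spot-inoculated at about 10^4 cfu per spot and incubated 35-36°C for 16-20 hours; the MIC was the lowest concentration inhibiting growth. Col is a high-level PBP2a producer; Col 8A is its isogenic PBP2a-lacking partner.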

[3] = system: S. aureus Col(Meth^R)(lac^-); assay: In vitro MIC, agar dilution; format: cell-based; settings: Staphylococcus aureus, read-out: minimum inhibitory concentration (MIC)
In short: as §1

MRSA strains = settings: in words, reported in background; cited from earlier work
[4] = system: S. aureus Spain #356(Meth^R); assay: In vitro MIC, agar dilution; format: cell-based; settings: Staphylococcus aureus, read-out: minimum inhibitory concentration (MIC)
In short: (§2)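 Test agent, dissolved in PBS pH 7.2 with Tween 20 or DMSO if needed, was mixed into molten Mueller-Hinton agar over a two-fold series topping at 128 μg/mL. Log-phase isolates were then spot-inoculated at ~10^4 cfu and incubated at 35-36 °C for 16-20 hours.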

P. aeruginosa ATCC 27853 = assay: In vitro MIC, agar dilution; format: cell-based; settings: Pseudomonas aeruginosa, ATCC27853, read-out: minimum inhibitory concentration (MIC)
In short: as §2

E. faecium A491(Amp^R) = assay: In vitro MIC, agar dilution; format: cell-based; settings: Enterococcus faecium, read-out: minimum inhibitory concentration (MIC)
In short: as §2

S. aureus ATCC 29213 = assay: In vitro MIC, agar dilution; format: cell-based; settings: Staphylococcus aureus, ATCC29213, read-out: minimum inhibitory concentration (MIC)
In short: as §2

E. faecalis VanB(Van^R) = assay: In vitro MIC, agar dilution; format: cell-based; settings: Enterococcus faecalis, read-out: minimum inhibitory concentration (MIC)
In short: as §2

[5] = system: S. aureus ATCC 13709(Meth^S); assay: In vitro MIC, agar dilution; format: cell-based; settings: Staphylococcus aureus, ATCC13709, S. aureus ATCC 13709(Meth^S); read-out: minimum inhibitory concentration (MIC)
In short: as §2

C[C@@H](O)[C@H]1C(=O)N2C(C(=O)O)=C(SCCN=CN)C[C@H]12 [Imipenem, imipenem, reference compound]
responders at 0.039 mg/kg ([1]; Dose 0.039 mg/kg, read-out: Survivors): 30% | responders at 0.078 mg/kg ([1]; Dose 0.078 mg/kg, read-out: Survivors): 60% | responders at 0.156 mg/kg ([1]; Dose 0.156 mg/kg, read-out: Survivors): 100% | responders at 0.3125 mg/kg ([1]; Dose 0.3125 mg/kg, read-out: Survivors): 100% | responders at 0.625 mg/kg ([1]; Dose 0.625 mg/kg, read-out: Survivors): 100% | ED50 ([1]; two equal doses, IP challenge, read-out: ED50): 0.06 mg/kg | MIC [2]: ≤ 0.25 mg/L | MIC [3]: 32 mg/L (≈ 107 µM) | activity against MRSA strains (MRSA strains): active against a few MRSA strains | MIC [4]: 32 mg/L (≈ 107 µM) | MIC (P. aeruginosa ATCC 27853): 1 mg/L (≈ 3.34 µM) | MIC (E. faecium A491(Amp^R)): > 128 mg/L | MIC (S. aureus ATCC 29213): ≤ 0.25 mg/L | MIC (E. faecalis VanB(Van^R)): 0.5 mg/L (≈ 1.67 µM) | MIC [5]: ≤ 0.25 mg/L
